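In this assay, cells in 96-well plates receive the compound at five concentrations for 48 hours. Endpoints are linearly interpolated between the surrounding concentrations. GI50 = concentration required for 50% inhibition of growth. TGI: total growth inhibition.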
What was measured:
Assay in all cases: NCI-60 cell line screen, 48 h
A498 renal = tested on: A498 renal
CAKI-1 renal = tested on: CAKI-1 renal
CCRF-CEM leukemia = tested on: CCRF-CEM leukemia
KM12 colon = tested on: KM12 colon
MCF7 breast = tested on: MCF7 breast
NCI-H226 lung = tested on: NCI-H226 lung
OVCAR-3 ovarian = tested on: OVCAR-3 ovarian
OVCAR-8 ovarian = tested on: OVCAR-8 ovarian
SK-MEL-2 melanoma = tested on: SK-MEL-2 melanoma
SK-MEL-28 melanoma = tested on: SK-MEL-28 melanoma

SMILES	GI50 (A498 renal) [µM]	TGI (A498 renal) [µM]	GI50 (CAKI-1 renal) [µM]	TGI (CAKI-1 renal) [µM]	GI50 (CCRF-CEM leukemia) [µM]	TGI (CCRF-CEM leukemia) [µM]	GI50 (KM12 colon) [µM]	TGI (KM12 colon) [µM]	GI50 (MCF7 breast) [µM]	TGI (MCF7 breast) [µM]	GI50 (NCI-H226 lung) [µM]	TGI (NCI-H226 lung) [µM]	GI50 (OVCAR-3 ovarian) [µM]	TGI (OVCAR-3 ovarian) [µM]	GI50 (OVCAR-8 ovarian) [µM]	TGI (OVCAR-8 ovarian) [µM]	GI50 (SK-MEL-2 melanoma) [µM]	TGI (SK-MEL-2 melanoma) [µM]	GI50 (SK-MEL-28 melanoma) [µM]	TGI (SK-MEL-28 melanoma) [µM]
CN(C)CCCN(CCC1CCCCC1)CCC1CCCCC1	2.87	9.61	2.65	8.06	1.72	6.38	1.78	3.44	1.32	2.62	12.1	26.7	2.11	5.63	3.12	7.12	1.93	3.73	0.593	1.18
O=c1oc2ccc(I)cc2c(=O)n1-c1ccc(F)cc1F	1.19	2.92	1.8	6.6	3.24	19.2	2.51	6.8	2.38	49.1	2.41	12.7	2.67	13	2.86	13.2	2.15	5.73	1.76	6.25
CO[C@H]1C=CO[C@@]2(C)Oc3c(C)c(O)c4c(O)c(c(CN5CCN(C)CC5)c(O)c4c3C2=O)NC(=O)/C(C)=C\C=C[C@H](C)[C@H](O)C(C)[C@@H](O)C(C)[C@H](OC(C)=O)[C@@H]1C (stereo partly drawn)	–	> 100	–	> 100	–	22.3	–	> 100	–	33.7	–	> 100	–	14.4	–	> 100	–	> 100	–	> 100
Cc1c2ccn(O)cc2c(C)c2c1nc1ccccc12	–	55.6	–	> 51.7	–	> 60.1	–	> 100	–	> 100	–	29	–	> 81.7	–	64.4	–	> 50	–	> 100
CC1=C2CC(C)(C)/C=C\C(=O)/C(C)=C\C3=C[C@H](C)C[C@]3(O2)C1=O	–	11.1	–	2.42	–	0.661	–	6	–	2.14	–	8.49	–	1.15	–	6.82	–	7.69	–	1.74
CC1(C)S[C@@H]2[C@H](N3C(=O)c4ccccc4C3=O)CN2[C@H]1NC(=O)N[C@@H]1N2C[C@@H](N3C(=O)c4ccccc4C3=O)[C@H]2SC1(C)C	–	> 100	–	> 100	–	> 100	–	> 100	–	> 100	–	> 100	–	> 100	–	> 100	–	> 100	–	> 100
COc1cc2c(c(OC)c1OC)-c1ccc(O)cc1[C@@H](NC(C)=O)CC2	0.0269	0.0956	0.183	> 39.8	0.0318	1.62	0.0358	0.224	0.0376	> 100	0.117	> 100	0.0232	0.0513	0.0562	> 100	0.0423	> 100	0.0528	> 100
Nc1c(C(=O)Nc2ccccc2)sc2nc3c(cc12)CCCCC3	0.307	4.74	0.478	> 100	0.41	> 100	0.52	> 100	0.332	> 100	1.49	24.7	0.415	2.07	1.51	> 100	1.72	20.4	0.812	> 100
O=C1/C=C/[C@@H](O)[C@@H]2C[C@@H](O)C[C@H]2/C=C/CCC[C@H](CCc2cccc3ccccc23)O1	0.0185	0.815	0.239	3.08	0.136	8.02	0.032	0.959	0.0753	0.377	0.0178	0.0351	0.0395	1.83	0.0491	13	0.175	0.521	0.0313	0.163
C=C1CC2(CC(c3ccccc3Cl)OC(c3ccccc3Cl)C2)OC1=O (stereo not drawn)	–	21.3	–	5.11	–	10.1	–	7.56	–	5	–	21.3	–	5.96	–	4.71	–	6.78	–	3.65
O=C(O)[C@H](Cc1c[nH]c2ccccc12)N1C(=O)c2ccccc2C1=O	87.3	> 100	–	> 100	> 100	> 100	–	> 100	–	> 100	–	> 100	–	> 100	> 100	> 100	–	> 100	–	> 100
CC/C=C\C[C@H](F)C/C=C1/C(=O)C=C[C@@H]1C/C=C\CCCC(=O)OC	9.41	17.2	1.87	6.82	1.38	5.75	1.26	3.43	1.02	7.05	22.2	44.6	2.05	6.9	2.05	12.2	4.88	13	1.52	4.94

Reference: PubChem BioAssay (NCI)
